# Biological target: human A2A receptor (A2AR) (Homo sapiens (Human), UniProt P29274)
# Experiment: Luciferase reporter assay (HEK293-A2AR-luc2p/CRE/Hygro cells)
# Assay type: cell-based
# Conditions: 3 nM CGS21680, 5 h incubation
# Protocol: HEK293 cells were maintained in Dulbecco's modified Eagle's medium (DMEM, Gibco) supplemented with 10% fetal bovine serum (FBS, Thermo Scientific), 100 units/mL penicillin (Gibco), and 0.1 mg/mL streptomycin (Gibco) in a humidified 37° C. environment with 5% CO2. Plasmid encoding wild-type human A2A receptor (A2AR) (in pcDNA3.1) was synthesized by Genscript (Nanjing, China). Transfection of the plasmids was performed in 6-well plates with 4×10^5 cells using Lipofectamin 2000 (ThermoFisher Scientific) according to the instruction of the manufacturer. Cell clones that stably express A2AR were established and maintained in the same complete medium as the HEK293 cells in addition of G-418 (Gibico). Expression level of A2AR in each single cell clone was determined using immunoblotting and FACS method. HEK293-A2AR stable cells were then transfected with pGL4.29[luc2P/CRE/Hygro] (Promega) luciferase reporter plasmid for establishing the HEK293-A2AR-luc2p/CRE/Hygro stable cell line.
# HEK293-A2AR-luc2p/CRE/Hygro cells were seeded at a density of 5,000 cells/well in DMEM with 1% FBS and 1 U/mL adenosine deaminase (ADA) (Sigma). After 18 h, the cells were treated with 3 nM CGS21680 plus a series dilution of A2AR antagonist, the compounds disclosed herein at the concentration of 0.1˜10000 nM, prepared in DMEM with 1% FBS. After 5 h incubation, the luciferase activity in cells were measured using the Bright-Glo Luciferase Assay System (Promega) according to manufacturer's instructions. The luminescence signal was measured using a PHERAstar FS plate reader (BMG Labtech). […] Maximal luminescence intensity was determined in the presence of 3 nM CGS21680 and was set as 100%. The IC50 value was calculated from a dose dependent inhibition curve across the range of compound concentrations.
# Chain of human A2A receptor (A2AR) (P29274 whole entry): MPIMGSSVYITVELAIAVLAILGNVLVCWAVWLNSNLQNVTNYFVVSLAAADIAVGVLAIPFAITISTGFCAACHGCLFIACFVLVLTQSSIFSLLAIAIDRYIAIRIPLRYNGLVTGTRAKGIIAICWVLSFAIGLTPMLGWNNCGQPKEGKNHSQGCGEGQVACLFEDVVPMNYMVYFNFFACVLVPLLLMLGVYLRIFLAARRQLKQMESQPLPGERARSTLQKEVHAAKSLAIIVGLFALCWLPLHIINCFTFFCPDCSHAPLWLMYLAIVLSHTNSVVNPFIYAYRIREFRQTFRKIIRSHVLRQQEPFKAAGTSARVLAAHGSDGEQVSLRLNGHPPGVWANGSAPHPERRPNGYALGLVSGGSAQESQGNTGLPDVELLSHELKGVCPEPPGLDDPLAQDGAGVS
row,IC50 [nM],Structure (SMILES)
1,3,"Nc1nc2c(cnn2C(C(=O)NCCc2ccccc2)c2ccccc2)c2nc(-c3ccco3)nn12 (stereo not shown) [Example 17, 2-(5-amino-2-(furan-2-yl)-7H-pyrazolo[4,3-e][1,2,4]triazolo[1,5-c]pyrimidin-7-yl)-N-phenethyl-2-phenylacetamide]"
2,0.9,"Nc1nc2c(cnn2C(C(=O)NCc2cccc(C3(O)CCC3)n2)c2ccccc2)c2nc(-c3ccco3)nn12 (stereo not shown) [Example 18, 2-(5-amino-2-(furan-2-yl)-7H-pyrazolo[4,3-e][1,2,4]triazolo[1,5-c]pyrimidin-7-yl)-N-((6-(1-hydroxycyclobutyl)pyridin-2-yl)methyl)-2-phenylacetamide]"
3,4.5,"NC(=O)C(c1ccccc1)n1ncc2c1nc(N)n1nc(-c3ccco3)nc21 (stereo not shown) [Example 19, 2-(5-amino-2-(furan-2-yl)-7H-pyrazolo[4,3-e][1,2,4]triazolo[1,5-c]pyrimidin-7-yl)-2-phenylacetamide]"
4,14.6,"Nc1nc2c(cnn2C(C(=O)NC2COc3ccccc32)c2ccccc2)c2nc(-c3ccco3)nn12 (stereo not shown) [Example 20, 2-(5-amino-2-(furan-2-yl)-7H-pyrazolo[4,3-e][1,2,4]triazolo[1,5-c]pyrimidin-7-yl)-N-(2,3-dihydrobenzofuran-3-yl)-2-phenylacetamide]"
5,15.3,"CCCC(C(=O)NCc1ccccc1OC)n1ncc2c1nc(N)n1nc(-c3ccco3)nc21 (stereo not shown) [Example 21, 2-(5-amino-2-(furan-2-yl)-7H-pyrazolo[4,3-e][1,2,4]triazolo[1,5-c]pyrimidin-7-yl)-N-(2-methoxybenzyl)pentanamide]"
6,1.4,"Nc1nc2c(cnn2C(C(=O)NCc2cccc(C(F)(F)F)c2)c2ccccc2)c2nc(-c3ccco3)nn12 (stereo not shown) [Example 22, 2-(5-amino-2-(furan-2-yl)-7H-pyrazolo[4,3-e][1,2,4]triazolo[1,5-c]pyrimidin-7-yl)-2-phenyl-N-(3-(trifluoromethyl)benzyl)acetamide]"
7,1.9,"Cc1cccc(CNC(=O)C(c2ccccc2)n2ncc3c2nc(N)n2nc(-c4ccco4)nc32)c1 (stereo not shown) [Example 23, 2-(5-amino-2-(furan-2-yl)-7H-pyrazolo[4,3-e][1,2,4]triazolo[1,5-c]pyrimidin-7-yl)-N-(3-methylbenzyl)-2-phenylacetamide]"
8,5.6,"Nc1nc2c(cnn2C(C(=O)NCc2ccc(OC(F)(F)F)cc2)c2ccccc2)c2nc(-c3ccco3)nn12 (stereo not shown) [Example 24, 2-(5-amino-2-(furan-2-yl)-7H-pyrazolo[4,3-e][1,2,4]triazolo[1,5-c]pyrimidin-7-yl)-2-phenyl-N-(4-(trifluoromethoxy)benzyl)acetamide]"
9,1.5,"Cc1ccc(CNC(=O)C(c2ccccc2)n2ncc3c2nc(N)n2nc(-c4ccco4)nc32)cc1 (stereo not shown) [Example 25, 2-(5-amino-2-(furan-2-yl)-7H-pyrazolo[4,3-e][1,2,4]triazolo[1,5-c]pyrimidin-7-yl)-N-(4-methylbenzyl)-2-phenylacetamide]"
10,2.6,"Nc1nc2c(cnn2C(C(=O)NCc2ccc(F)cc2)c2ccccc2)c2nc(-c3ccco3)nn12 (stereo not shown) [Example 26, 2-(5-amino-2-(furan-2-yl)-7H-pyrazolo[4,3-e][1,2,4]triazolo[1,5-c]pyrimidin-7-yl)-N-(4-fluorobenzyl)-2-phenylacetamide]"
11,16.1,"COc1ccccc1CNC(=O)C(CC(C)C)n1ncc2c1nc(N)n1nc(-c3ccco3)nc21 (stereo not shown) [Example 27, 2-(5-amino-2-(furan-2-yl)-7H-pyrazolo[4,3-e][1,2,4]triazolo[1,5-c]pyrimidin-7-yl)-N-(2-methoxybenzyl)-4-methylpentanamide]"
12,1.6,"COc1ccc(CNC(=O)C(c2ccccc2)n2ncc3c2nc(N)n2nc(-c4ccco4)nc32)cc1 (stereo not shown) [Example 28, 2-(5-amino-2-(furan-2-yl)-7H-pyrazolo[4,3-e][1,2,4]triazolo[1,5-c]pyrimidin-7-yl)-N-(4-methoxybenzyl)-2-phenylacetamide]"
13,1.3,"Nc1nc2c(cnn2C(C(=O)NCc2ccc(C(F)(F)F)cc2)c2ccccc2)c2nc(-c3ccco3)nn12 (stereo not shown) [Example 29, 2-(5-amino-2-(furan-2-yl)-7H-pyrazolo[4,3-e][1,2,4]triazolo[1,5-c]pyrimidin-7-yl)-2-phenyl-N-(4-(trifluoromethyl)benzyl)acetamide]"
14,10.8,"CC(C(=O)NCCc1ccccc1)(c1ccccc1)n1ncc2c1nc(N)n1nc(-c3ccco3)nc21 (stereo not shown) [Example 30, 2-(5-amino-2-(furan-2-yl)-7H-pyrazolo[4,3-e][1,2,4]triazolo[1,5-c]pyrimidin-7-yl)-N-phenethyl-2-phenylpropanamide]"
15,5.8,"CC(C(=O)NCC1(O)COC1)(c1ccccc1)n1ncc2c1nc(N)n1nc(-c3ccco3)nc21 (stereo not shown) [Example 31, 2-(5-amino-2-(furan-2-yl)-7H-pyrazolo[4,3-e][1,2,4]triazolo[1,5-c]pyrimidin-7-yl)-N-((3-hydroxyoxetan-3-yl)methyl)-2-phenylpropanamide]"
16,28,C[C@@](C(=O)NCC1(O)COC1)(c1ccccc1)n1ncc2c1nc(N)n1nc(-c3ccco3)nc21 [Example 31A]
17,25,"CNC(=O)C(C)(c1ccccc1)n1ncc2c1nc(N)n1nc(-c3ccco3)nc21 (stereo not shown) [Example 32, 2-(5-amino-2-(furan-2-yl)-7H-pyrazolo[4,3-e][1,2,4]triazolo[1,5-c]pyrimidin-7-yl)-N-methyl-2-phenylpropanamide]"
18,8.4,"CC(C(=O)N[C@H]1CC[C@@](C)(O)CC1)(c1ccccc1)n1ncc2c1nc(N)n1nc(-c3ccco3)nc21 (stereo partly drawn) [Example 33, 2-(5-amino-2-(furan-2-yl)-7H-pyrazolo[4,3-e][1,2,4]triazolo[1,5-c]pyrimidin-7-yl)-(trans)-N-(4-hydroxy-4-methylcyclohexyl)-2-phenylpropanamide]"
19,9.5,"CC(C(=O)Nc1ccccc1)(c1ccccc1)n1ncc2c1nc(N)n1nc(-c3ccco3)nc21 (stereo not shown) [Example 34, 2-(5-amino-2-(furan-2-yl)-7H-pyrazolo[4,3-e][1,2,4]triazolo[1,5-c]pyrimidin-7-yl)-N,2-diphenylpropanamide]"
20,10.7,"CC(C(=O)NCc1ccccc1)(c1ccccc1)n1ncc2c1nc(N)n1nc(-c3ccco3)nc21 (stereo not shown) [Example 35, 2-(5-amino-2-(furan-2-yl)-7H-pyrazolo[4,3-e][1,2,4]triazolo[1,5-c]pyrimidin-7-yl)-N-benzyl-2-phenylpropanamide]"
21,12.9,"CC(C(=O)NC1CCC(O)C1)(c1ccccc1)n1ncc2c1nc(N)n1nc(-c3ccco3)nc21 (stereo not shown) [Example 36, 2-(5-amino-2-(furan-2-yl)-7H-pyrazolo[4,3-e][1,2,4]triazolo[1,5-c]pyrimidin-7-yl)-N-(3-hydroxycyclopentyl)-2-phenylpropanamide]"
22,500,"CC(C(=O)NC1(CO)CC1)(c1ccccc1)n1ncc2c1nc(N)n1nc(-c3ccco3)nc21 (stereo not shown) [Example 37, 2-(5-amino-2-(furan-2-yl)-7H-pyrazolo[4,3-e][1,2,4]triazolo[1,5-c]pyrimidin-7-yl)-N-(1-(hydroxymethyl)cyclopropyl)-2-phenylpropanamide]"
23,22.6,"C[C@@H](O)CNC(=O)C(C)(c1ccccc1)n1ncc2c1nc(N)n1nc(-c3ccco3)nc21 (stereo partly drawn) [Example 38, 2-(5-amino-2-(furan-2-yl)-7H-pyrazolo[4,3-e][1,2,4]triazolo[1,5-c]pyrimidin-7-yl)-N—((R)-2-hydroxypropyl)-2-phenylpropanamide]"
24,7.6,"COCCNC(=O)C(C)(c1ccccc1)n1ncc2c1nc(N)n1nc(-c3ccco3)nc21 (stereo not shown) [Example 39, 2-(5-amino-2-(furan-2-yl)-7H-pyrazolo[4,3-e][1,2,4]triazolo[1,5-c]pyrimidin-7-yl)-N-(2-methoxyethyl)-2-phenylpropanamide]"
25,14.9,"CC(C(=O)NC1CC1)(c1ccccc1)n1ncc2c1nc(N)n1nc(-c3ccco3)nc21 (stereo not shown) [Example 40, 2-(5-amino-2-(furan-2-yl)-7H-pyrazolo[4,3-e][1,2,4]triazolo[1,5-c]pyrimidin-7-yl)-N-cyclopropyl-2-phenylpropanamide]"
26,9.3,"CC(C(=O)NCCN1CCOCC1)(c1ccccc1)n1ncc2c1nc(N)n1nc(-c3ccco3)nc21 (stereo not shown) [Example 41, 2-(5-amino-2-(furan-2-yl)-7H-pyrazolo[4,3-e][1,2,4]triazolo[1,5-c]pyrimidin-7-yl)-N-(2-morpholinoethyl)-2-phenylpropanamide]"
27,3.9,"CC(C(=O)NCc1ccc2c(c1)OCO2)(c1ccccc1)n1ncc2c1nc(N)n1nc(-c3ccco3)nc21 (stereo not shown) [Example 42, 2-(5-amino-2-(furan-2-yl)-7H-pyrazolo[4,3-e][1,2,4]triazolo[1,5-c]pyrimidin-7-yl)-N-(benzo[d][1,3]dioxol-5-ylmethyl)-2-phenylpropanamide]"
28,4.1,"CC(C(=O)NC1CCCCC1)(c1ccccc1)n1ncc2c1nc(N)n1nc(-c3ccco3)nc21 (stereo not shown) [Example 43, 2-(5-amino-2-(furan-2-yl)-7H-pyrazolo[4,3-e][1,2,4]triazolo[1,5-c]pyrimidin-7-yl)-N-cyclohexyl-2-phenylpropanamide]"
